Assay results from US11337971B2, “Dopamine D3 receptor selective antagonists/partial agonists and uses thereof” (THE UNITED STATES OF AMERICA, AS REPRESENTED BY THE …, priority 2018, dated 2022).
Entries after “also recorded” stand apart in the source; their conditions may differ. Where two headings read alike, the source gives them in different places.

How the values were obtained:
Male Long-Evans rats [1] = test: Acquisition of oxycodone self-administration in rats; type: in vivo, rat; settings: 5-15 mg/kg i.p., 15 min before each of the initial 5 sessions; oxycodone 50 μg/kg/infusion, FR 1
Procedure: Animals: Male Long-Evans rats (275-325 g) (Charles-River Laboratories, Raleigh, N.C.) were used throughout this study. Upon arrival, they were housed in an animal facility under a reversed 12 h light-dark cycle (light on at 7:00 PM) with free access to food and water. They were allowed to acclimatize to the new environment at least for 7 days prior to study initiation. All procedures were approved by the Animal Care and Use Committee (IACUC) of the U.S. National Institute on Drug Abuse (NIDA) and were consistent with the Guide for the Care and Use of Laboratory Animals, 8th edition (National Research Council, 2011).
Surgery and self-administration procedures: The i.v. catheterization surgery and i.v. oxycodone self-administration procedures are the same as reported previously (You et al, 2017). […]
Oxycodone self-administration training was conducted in an operant conditioning chamber equipped with two response levers (Med Associates Inc., Georgia, Vt., USA). […] This time also served as a timeout period during which the cue light and tone were kept on and the animal's response on the active lever was recorded but had no scheduled consequence.
Three groups of rats (n=8/group) were used to test the effects of compound (±)-29 on acquisition of oxycodone self-administration. […] Animals' responses on the levers and oxycodone infusions were recorded. […]

mice = test: Basal locomotor activity in mice; type: in vivo
rhesus monkeys = test: Thermal tail withdrawal model of oxycodone antinociception in rhesus monkeys; type: in vivo, rhesus monkey; settings: 10 mg/kg, i.m.
Male Long-Evans rats [2] = test: Oxycodone self-administration under progressive ratio (PR) reinforcement; settings: 5, 15, 25 mg/kg, i.p.
human D2R = human D2R (Homo sapiens (Human), UniProt P14416); test: Radioligand competition binding, [3H]N-methylspiperone, HEK293 membranes expressing human D2R; settings: read-out: D2R Ki ± SEM
Procedure, shortened: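 HEK293 membranes (10 μg protein) incubated 1 h at room temperature in EBSS with 0.2 mM sodium metabisulfite, 0.4 nM [3H]N-methylspiperone and compound (10 μM to 10 pM, triplicate). Nonspecific binding defined with 10 μM butaclamol; GF/B filtration.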

Male Long-Evans rats [3] = test: Oxycodone-triggered reinstatement of drug-seeking behavior; type: in vivo, rat; settings: 5-15 mg/kg, i.p., oxycodone priming 1 mg/kg
Procedure: For the three groups from Experiment 2, extinction sessions continued without drug treatment until the rats' average active lever-presses/session decreased to less than 10 responses over 3 consecutive sessions. On the following day, 2 groups of rats were first pretreated with 1 of 2 doses of compound (±)-29 (5 or 15 mg/kg) while another group with vehicle. Fifteen min following pretreatment, all the animals received a non-contingent injection of oxycodone priming (1 mg/kg, i.p.) and then were placed into the same operant chambers for another extinction session.

Sequence of human D2R (P14416 whole entry): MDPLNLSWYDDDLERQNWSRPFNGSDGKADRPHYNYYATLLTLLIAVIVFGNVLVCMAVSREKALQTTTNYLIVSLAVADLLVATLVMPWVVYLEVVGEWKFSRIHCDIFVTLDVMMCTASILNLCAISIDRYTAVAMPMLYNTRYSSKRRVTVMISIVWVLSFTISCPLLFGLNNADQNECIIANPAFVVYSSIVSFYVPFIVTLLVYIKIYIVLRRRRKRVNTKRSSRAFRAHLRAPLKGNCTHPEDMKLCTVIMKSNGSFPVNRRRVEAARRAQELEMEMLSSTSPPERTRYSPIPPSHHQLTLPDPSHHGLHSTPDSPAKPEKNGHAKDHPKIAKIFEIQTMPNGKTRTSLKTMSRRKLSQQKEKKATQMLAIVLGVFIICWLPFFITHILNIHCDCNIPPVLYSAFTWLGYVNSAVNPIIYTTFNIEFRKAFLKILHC

For `CCc1cc(Cl)c(OC)c(N2CCN(CC(O)CCNC(=O)c3cc4ccccc4[nH]3)CC2)c1` (racemic) [Compound 29, N-(4-(4-(3-chloro-5-ethyl-2-methoxyphenyl)piperazin-1-yl)-3-hydroxybutyl)-1H-indole-2-carboxamide], the “oxycodone infusions and active lever presses during acquisition of oxycodone self-administration” value (Male Long-Evans rats [1]) was “dose-dependently decreased the number of oxycodone infusions and active lever presses; also recorded: dose-dependently inhibited the acquisition of oxycodone self-administration”, the basal locomotor activity (mice) was “nether significantly affected” and the “antinociception at submaximal dose of 0.1 mg/kg oxycodone” value (rhesus monkeys) was “potentiated antinociception; also recorded: potentiates the analgesic effects”. For the same molecule, the “oxycodone antinociception at the highest and lowest doses of oxycodone” value (rhesus monkeys) was “no effect on oxycodone antinociception”, the “break-point for oxycodone self-administration under PR reinforcement” value (Male Long-Evans rats [2]) was “significantly and dose-dependently lowers the break-point; also recorded: dose-dependently lowered the PR break-point” and the Ki (human D2R; Table 1B, [3H]-N-methylspiperone competition, D2LR, 96-well plates) was 11.4 ± 3.27 µM. For the same molecule, the Ki (human D2R; Table 1C) was 13.2 ± 3.77 µM and the “oxycodone-primed reinstatement of active lever-presses” value (Male Long-Evans rats [3]) was “dose-dependently blocked; also recorded: dose dependently reduced reinstatement to oxycodone seeking”.
